Measurements reported in ChEMBL document CHEMBL1131750, “A substrate combinatorial array for caspases” (Bioorg Med Chem Lett, 1999).
Peptide text beside a SMILES is read from it. * marks the point of attachment. AMC = Cc1cc(=O)oc2cc(N*)ccc12

Experiments:
Format in all cases: ADME
[1] = Km value of Ac-YVAD-AMC substrate for compound
[2] = Kinetic Constant of Ac-YVAD-AMC for compound
[3] = Vmax value of Ac-YVAD-AMC substrate for compound
[4] = Kinetic Constant of Ac-WEAD-AMC for compound
[5] = Kinetic Constant of Ac-WVAD-AMC for compound

Km [1]: 20 µM
Vmax / Km [2]: 53 FU min-1 uM-1
Vmax [3]: 1060 FU uM-1
Km [4]: 9 µM
Vmax [4]: 1840 FU uM-1
Vmax / Km [4]: 204 FU min-1 uM-1
Km [5]: 27 µM
Vmax [5]: 1300 FU uM-1
Vmax / Km [5]: 48 FU min-1 uM-1
Structure (SMILES): CC(=O)NCC(=O)NCC(=O)N[C@@H](C)C(=O)N[C@@H](CC(=O)O)C(=O)Nc1ccc2c(C)cc(=O)oc2c1 (Ac-GGAD-{AMC})
